Data reported in patent US9409866B2, “Pyridine-2-amides useful as CB2 agonists” (Hoffmann-La Roche Inc., priority 2012, dated 2016).
Read-outs that look alike come from different tables or passages of the source.

Legend:
human CB2 receptors = human CB2 receptors (Homo sapiens (Human), UniProt P34972); assay: functional cAMP assay, CHO cells expressing human CB2; assay type: cell-based
How it was run: (§1)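 Compound exposure lasted 30 min at 30 °C in IBMX (1 mM)-containing Krebs Ringer bicarbonate buffer, applied to human CB1- or CB2-expressing CHO cells. Lysates were read by time-resolved FRET cAMP detection, converted via cAMP standard curve (10 μM–0.13 nM), and EC50 values calculated.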

human CB1 receptors = human CB1 receptors (Homo sapiens (Human), UniProt P21554); assay: functional cAMP assay, CHO cells expressing human CB1; assay type: cell-based
How it was run: as §1

[1] = read-out: Human CB1 EC50, functional cAMP assay, CHO cells expressing human CB1
[2] = Human CB1 EC50 (uM), functional cAMP assay, CHO cells expressing human CB1
[3] = functional cAMP assay, CHO cells expressing human CB1, read-out: Human CB1 EC50

Chain of human CB2 receptors (P34972 whole entry): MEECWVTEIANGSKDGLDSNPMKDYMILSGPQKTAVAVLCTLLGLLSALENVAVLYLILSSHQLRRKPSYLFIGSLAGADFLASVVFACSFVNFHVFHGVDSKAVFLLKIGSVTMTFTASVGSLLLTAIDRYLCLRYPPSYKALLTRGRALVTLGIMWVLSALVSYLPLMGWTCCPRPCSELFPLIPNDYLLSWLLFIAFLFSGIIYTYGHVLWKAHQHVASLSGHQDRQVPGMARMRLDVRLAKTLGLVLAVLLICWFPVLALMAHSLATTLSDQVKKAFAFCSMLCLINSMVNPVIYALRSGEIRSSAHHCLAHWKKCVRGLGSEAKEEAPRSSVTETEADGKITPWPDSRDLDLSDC
Chain of human CB1 receptors (P21554 whole entry): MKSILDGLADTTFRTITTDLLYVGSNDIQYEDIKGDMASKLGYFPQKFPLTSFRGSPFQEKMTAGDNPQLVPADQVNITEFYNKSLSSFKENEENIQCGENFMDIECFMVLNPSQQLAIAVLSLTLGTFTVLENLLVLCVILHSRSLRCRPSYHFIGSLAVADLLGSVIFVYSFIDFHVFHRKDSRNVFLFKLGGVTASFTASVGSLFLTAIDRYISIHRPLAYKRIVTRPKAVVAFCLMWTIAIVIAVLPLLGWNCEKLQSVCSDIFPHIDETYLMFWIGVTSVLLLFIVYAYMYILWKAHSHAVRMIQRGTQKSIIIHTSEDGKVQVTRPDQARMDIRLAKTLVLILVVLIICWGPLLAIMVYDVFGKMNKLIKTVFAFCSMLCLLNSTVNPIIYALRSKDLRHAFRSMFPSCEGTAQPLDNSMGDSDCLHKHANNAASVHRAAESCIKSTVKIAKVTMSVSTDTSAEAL

| SMILES | EC50 (human CB2 receptors; Human CB2 EC50 (uM)) [µM] | EC50 (human CB2 receptors; read-out: Human CB2 EC50) [µM] | EC50 (human CB1 receptors; [3]) [µM] | further results |
| --- | --- | --- | --- | --- |
| CC(C)(C)C(NC(=O)c1cc(OCC2CC2)c(N2CC(F)(F)C2)cn1)C(N)=O (single isomer, unassigned) [Example 261, N-[1-amino-3,3-dimethyl-1-oxobutan-2-yl]-4-(cyclopropylmethoxy)-5-(3,3-difluoroazetidin-1-yl)pyridine-2-carboxamide] | 0.0211 |  |  | EC50 (human CB1 receptors; [1]): > 10 µM |
| Cc1nc(C(C)(CS(C)(=O)=O)NC(=O)c2cc(OCC(F)F)c(C3CC3)cn2)no1 (single isomer, unassigned) [Example 283, 5-cyclopropyl-4-(2,2-difluoroethoxy)-N-(2-(5-methyl-1,2,4-oxadiazol-3-yl)-1-(methylsulfonyl)propan-2-yl)picolinamide] | 0.0533 |  |  | EC50 (human CB1 receptors; [2]): > 10 µM |
| Cc1nc(C(C)(CS(C)(=O)=O)NC(=O)c2cc(OCC(F)(F)F)c(C3(F)COC3)cn2)no1 (single isomer, unassigned) [Example 132, 5-(3-fluorooxetan-3-yl)-N-[2-(5-methyl-1,2,4-oxadiazol-3-yl)-1-methylsulfonylpropan-2-yl]-4-(2,2,2-trifluoroethoxy)pyridine-2-carboxamide] |  | 0.333 |  | EC50 (human CB1 receptors): > 10 µM |
| O=C(NCC1(CO)CCCC1)c1cc(OCC2CC2)c(Cl)cn1 [Example 20, 5-Chloro-4-cyclopropylmethoxy-pyridine-2-carboxylic acid (1-hydroxymethyl-cyclopentylmethyl)-amide] |  | 0.0232 | > 10 |  |
| CC(C)[C@H](CO)NC(=O)c1cc(OCC2CC2)c(Cl)cn1 [Example 11, 5-Chloro-4-cyclopropylmethoxy-pyridine-2-carboxylic acid ((R)-1-hydroxymethyl-2-methyl-propyl)-amide] |  | 0.0554 | > 10 |  |
| CC(CF)Oc1cc(C(=O)NC2(CC(N)=O)CS(=O)(=O)C2)ncc1C1CC1 (single isomer, unassigned) [Example 292, N-[3-(2-amino-2-oxoethyl)-1,1-dioxothietan-3-yl]-5-cyclopropyl-4-[1-fluoropropan-2-yl]oxypyridine-2-carboxamide] | 0.0019 |  |  | EC50 (human CB1 receptors; [1]): > 10 µM |
| CC(C)(C)C(NC(=O)c1cc(OCC(F)(F)F)c(C2CC2)cn1)C(=O)N1CCC1 (stereo not shown) [Example 196, N-[1-(azetidin-1-yl)-3,3-dimethyl-1-oxobutan-2-yl]-5-cyclopropyl-4-(2,2,2-trifluoroethoxy)pyridine-2-carboxamide] |  | 0.0012 | > 10 |  |
| C[C@H](Oc1cc(C(=O)NC2(CC(N)=O)CS(=O)(=O)C2)ncc1C1CC1)C(F)(F)F [Example 266, N-[3-(2-amino-2-oxoethyl)-1,1-dioxothietan-3-yl]-5-cyclopropyl-4-[(2S)-1,1,1-trifluoropropan-2-yl]oxypyridine-2-carboxamide] |  | 0.0016 | > 10 |  |
| NC(=O)CC1(NC(=O)c2cc(OCC3CC3)c(N3CC(F)(F)C3)cn2)COC1 [Example 222, N-[3-(2-amino-2-oxoethyl)oxetan-3-yl]-4-(cyclopropylmethoxy)-5-(3,3-difluoroazetidin-1-yl)pyridine-2-carboxamide] |  | 0.0467 | > 10 |  |
| Cc1nc(C(C)(NC(=O)c2cc(OCC(F)(F)F)c(C3(F)COC3)cn2)C2CC2)no1 (single isomer, unassigned) [Example 167, N-[1-cyclopropyl-1-(5-methyl-1,2,4-oxadiazol-3-yl)ethyl]-5-(3-fluorooxetan-3-yl)-4-(2,2,2-trifluoroethoxy)pyridine-2-carboxamide] | 0.0281 |  |  | EC50 (human CB1 receptors; [1]): > 10 µM |
| NC(=O)[C@@H]1CC(F)(F)CN1C(=O)c1cc(OCC2CC2)c(C2CC2)cn1 [Example 114, (2S)-1-[5-cyclopropyl-4-(cyclopropylmethoxy)pyridine-2-carbonyl]-4,4-difluoropyrrolidine-2-carboxamide] |  | 1 | > 10 |  |
| CNC(=O)C(NC(=O)c1cc(O[C@@H](C)C(F)(F)F)c(C2CC2)cn1)C(C)(C)O (stereo partly drawn) [Example 238, 5-cyclopropyl-N-[3-hydroxy-3-methyl-1-(methylamino)-1-oxobutan-2-yl]-4-[(2S)-1,1,1-trifluoropropan-2-yl]oxypyridine-2-carboxamide] |  | 0.0274 | > 10 |  |
| Cc1nc(C(C)(CC2CC2)NC(=O)c2cc(OCC(F)F)c(C3CC3)cn2)no1 (single isomer, unassigned) [Example 155, 5-cyclopropyl-N-[1-cyclopropyl-2-(5-methyl-1,2,4-oxadiazol-3-yl)propan-2-yl]-4-(2,2-difluoroethoxy)pyridine-2-carboxamide] | 0.0058 |  |  | EC50 (human CB1 receptors; [1]): > 10 µM |
| CC(C)(C)C(NC(=O)c1cc(OCC(F)(F)F)c(Cl)cn1)c1nccs1 (stereo not shown) [Example 38, 5-Chloro-4-(2,2,2-trifluoro-ethoxy)-pyridine-2-carboxylic acid (2,2-dimethyl-1-thiazol-2-yl-propyl)-amide] |  | 0.0408 | > 10 |  |
| CC(CC(N)=O)(NC(=O)c1cc(OCC(F)F)c(C2CC2)cn1)C1CC1 (single isomer, unassigned) [Example 273, N-[4-amino-2-cyclopropyl-4-oxobutan-2-yl]-5-cyclopropyl-4-(2,2-difluoroethoxy)pyridine-2-carboxamide] | 0.0017 |  |  | EC50 (human CB1 receptors; [1]): > 10 µM |
| CCN(C(=O)c1cc(OCC2CC2)c(C2CC2)cn1)C(C)(C)C [Example 106, 5-Cyclopropyl-4-cyclopropylmethoxy-pyridine-2-carboxylic acid tert-butyl-ethyl-amide] |  | 0.0095 | > 10 |  |
| Cc1nc(C(C)(NC(=O)c2cc(O[C@@H](C)C(F)(F)F)c(C3(F)COC3)cn2)C2CC2)no1 (stereo partly drawn) [Example 169, N-[1-cyclopropyl-1-(5-methyl-1,2,4-oxadiazol-3-yl)ethyl]-5-(3-fluorooxetan-3-yl)-4-[(2S)-1,1,1-trifluoropropan-2-yl]oxypyridine-2-carboxamide] |  | 0.0055 | > 10 |  |
| CC(C)(C)[C@H](CO)NC(=O)c1cc(OCC2CC2)c(Cl)cn1 [Example 29, 5-Chloro-4-cyclopropylmethoxy-pyridine-2-carboxylic acid ((R)-1-hydroxymethyl-2,2-dimethyl-propyl)-amide] |  | 0.0646 | > 10 |  |
| C[C@H](Oc1cc(C(=O)NC2(CC(N)=O)CS(=O)(=O)C2)ncc1C1(F)COC1)C(F)(F)F [Example 265, N-[3-(2-amino-2-oxoethyl)-1,1-dioxothietan-3-yl]-5-(3-fluorooxetan-3-yl)-4-[(2S)-1,1,1-trifluoropropan-2-yl]oxypyridine-2-carboxamide] |  | 0.102 | > 10 |  |
| C[C@@H](Oc1cc(C(=O)NC2(CC(N)=O)COC2)ncc1C1CC1)C(F)(F)F [Example 63, 5-Cyclopropyl-4-((R)-2,2,2-trifluoro-1-methyl-ethoxy)-pyridine-2-carboxylic acid (3-carbamoylmethyl-oxetan-3-yl)-amide] |  | 0.283 | > 10 |  |
| C[C@H](Oc1cc(C(=O)NC(C(N)=O)C(C)(C)C)ncc1C1CC1)C(F)(F)F (stereo partly drawn) [Example 239, N-(1-amino-3,3-dimethyl-1-oxobutan-2-yl)-5-cyclopropyl-4-[(2S)-1,1,1-trifluoropropan-2-yl]oxypyridine-2-carboxamide] |  | 0.0015 | > 10 |  |
| CNC(=O)CC1(NC(=O)c2cc(OCC(F)(F)F)c(C3CC3)cn2)COC1 [Example 231, 5-cyclopropyl-N-[3-[2-(methylamino)-2-oxoethyl]oxetan-3-yl]-4-(2,2,2-trifluoroethoxy)pyridine-2-carboxamide] |  | 0.547 | > 10 |  |
| CC(C)(C)C(NC(=O)c1cc(OCC2CC2)c(N2CC(F)(F)C2)cn1)C(N)=O (single isomer, unassigned) [Example 260, N-[1-amino-3,3-dimethyl-1-oxobutan-2-yl]-4-(cyclopropylmethoxy)-5-(3,3-difluoroazetidin-1-yl)pyridine-2-carboxamide] | 0.0209 |  |  | EC50 (human CB1 receptors; [2]): > 10 µM |
| Cc1nc(C(C)(CC2CC2)NC(=O)c2cc(OCC(F)(F)F)c(Cl)cn2)no1 (stereo not shown) [Example 89, 5-Chloro-4-(2,2,2-trifluoro-ethoxy)-pyridine-2-carboxylic acid [2-cyclopropyl-1-methyl-1-(5-methyl-[1,2,4]oxadiazol-3-yl)-ethyl]-amide] |  | 0.0483 | > 10 |  |
| Cc1nc(C(C)(CC2CC2)NC(=O)c2cc(OCCF)c(C3CC3)cn2)no1 (single isomer, unassigned) [Example 157, 5-cyclopropyl-N-[1-cyclopropyl-2-(5-methyl-1,2,4-oxadiazol-3-yl)propan-2-yl]-4-(2-fluoroethoxy)pyridine-2-carboxamide] | 0.0036 |  |  | EC50 (human CB1 receptors; [1]): > 10 µM |
| CC(CC(N)=O)(NC(=O)c1cc(OCCF)c(C2CC2)cn1)C1CC1 (single isomer, unassigned) [Example 270, N-[4-amino-2-cyclopropyl-4-oxobutan-2-yl]-5-cyclopropyl-4-(2-fluoroethoxy)pyridine-2-carboxamide] | 0.0689 |  |  | EC50 (human CB1 receptors; [2]): > 10 µM |
| O=C(NC(CCO)C1CC1)c1cc(OCC2CC2)c(Cl)cn1 (stereo not shown) [Example 19, 5-Chloro-4-cyclopropylmethoxy-pyridine-2-carboxylic acid (1-cyclopropyl-3-hydroxy-propyl)-amide] |  | 0.0615 | > 10 |  |
| CCC(CC)(NC(=O)c1cc(OCC2CC2)c(C2CC2)cn1)C(=O)NC [Example 45, 5-Cyclopropyl-4-cyclopropylmethoxy-pyridine-2-carboxylic acid (1-ethyl-1-methylcarbamoyl-propyl)-amide] |  | 0.017 | > 10 |  |
| CNC(=O)CC1(NC(=O)c2cc(OCC(F)(F)F)c(N3CC(F)(F)C3)cn2)COC1 [Example 233, 5-(3,3-difluoroazetidin-1-yl)-N-[3-[2-(methylamino)-2-oxoethyl]oxetan-3-yl]-4-(2,2,2-trifluoroethoxy)pyridine-2-carboxamide] |  | 0.915 | > 10 |  |
